Test results: EP1433789A1, “Pyrrolopyrazines and their use as selective apoptosis inducers” (Aponetics AG, priority 2002, dated 2004)

Experiments:
A20 [1] = experiment: AnnexinV/7-AAD staining; type: cell-based, mouse; details: A20, 10 µM, 24 h treatment
Method: (§1) Adherent cells (1 - 2*10^5) are 24 h prior to compound treatment seeded into 24 well tissue culture plates. Suspension cells are pipetted into P-tubes immediately before treatment. Test compounds are added leading to a final concentrations of 10 µM. After 24 h treatment cells are harvested (in case of adherent cells by trypsinization) and transferred to FACS tubes (BD Biosciences). After centrifugation and removal of the supernatant, 100 µl complete medium containing AnnexinV-GST (10 µg) is added, mixed and incubated at 4°C for 30 minutes. Subsequently, the cells are washed once with medium and incubated with 100 µl anti-GST Alexa 488 (Molecular Probes A-11131) in medium diluted 1:500 for 30 minutes at 4°C. Then, cells are washed once and stained with 1 µg/ml 7-aminoactinomycin D (7-AAD) (Molecular Probes A-1310) in 250 µl medium and analyzed on the FACSCalibur™. AnnexinV is measured in FL1 whereas 7-AAD is measured in FL3. In Table 5 the percentage of positively stained cells after treatment with the respective compounds are indicated. The following scores are used: Score 0 relates to less than 10%, score 1 relates to more than 10% but less than 50% and score 2 relates to more than 50% positivity.

Jurkat [2] = experiment: Hoechst 33342 nuclear staining (Table 3); type: cell-based, human; design: key: 0 relating to no activity; 1 relating to weak activity comprising less than 50% of the cells; score 2 relating to strong activity comprising more than 50% of the cells
Method: (§2) This assay is performed in 96 well tissue culture plates. Appropriate number of cells (adherent cells: 3 - 5*10^3, suspension cells: 8 - 10*10^3) are being seeded out in 80 µl complete medium. Adherent cells are incubated for 24 h for proper spreading out before addition of test compounds while suspension cells are immediately treated with test compounds after seeding out. The test compounds are added in 20 µl complete medium containing max 5% DMSO. The final compound concentrations in the assays are 10 µM, 3 µM,1 µM and 0.3 µM, respectively. After 24 h or 48 h incubation at culture conditions, 10 µl medium containing Hoechst 33342 dye (Sigma B-2261) at 2-5 µg/ml are added to each well. The assay plates are then further incubated for 30 minutes and subsequently analyzed with a standard inverted fluorescence microscope. The readout allows the determination of the fraction of apoptotic nuclei as well as other morphological criteria specific for apoptosis as a function of the treatment. The following scores are used: 0 relating to no activity, 1 relating to weak activity comprising less than 50% of the cells and score 2 relating to strong activity comprising more than 50% of the cells.

KB = experiment: Hoechst 33342 nuclear staining (Table 3); type: cell-based, human; design: key: 0 relating to no activity; 1 relating to weak activity comprising less than 50% of the cells; score 2 relating to strong activity comprising more than 50% of the cells
Method: as §2

HeLa [3] = experiment: Hoechst 33342 nuclear staining (Table 3); type: cell-based, human; design: key: 0 relating to no activity; 1 relating to weak activity comprising less than 50% of the cells; score 2 relating to strong activity comprising more than 50% of the cells
Method: as §2

K562 = experiment: Hoechst 33342 nuclear staining (Table 3); type: cell-based, human; design: key: 0 relating to no activity; 1 relating to weak activity comprising less than 50% of the cells; score 2 relating to strong activity comprising more than 50% of the cells
Method: as §2

Ramos [4] = experiment: AnnexinV/7-AAD staining; type: cell-based, human; details: 10 µM, 24 h treatment
Method: as §1

Jurkat [5] = experiment: AnnexinV/7-AAD staining; type: cell-based, human; details: 10 µM, 24 h treatment
Method: as §1

HeLa [6] = experiment: AnnexinV/7-AAD staining; type: cell-based, human; details: 10 µM, 24 h treatment
Method: as §1

Ramos [7] = experiment: Hoechst 33342 nuclear staining (Table 3); type: cell-based, human; design: key: 0 relating to no activity; 1 relating to weak activity comprising less than 50% of the cells; score 2 relating to strong activity comprising more than 50% of the cells; details: 24h
Method: as §2

A20 [8] = experiment: Hoechst 33342 nuclear staining (Table 3); type: cell-based, mouse; design: key: 0 relating to no activity; 1 relating to weak activity comprising less than 50% of the cells; score 2 relating to strong activity comprising more than 50% of the cells
Method: as §2

SMILES	percentage of positively stained cells (AnnexinV/7-AAD staining) (A20 [1])	Hoechst 33342 nuclear staining (Jurkat [2]; 24h, conc 0.3 (µM))	Hoechst 33342 nuclear staining (Jurkat [2]; 24h, conc 1 (µM))	Hoechst 33342 nuclear staining (Jurkat [2]; 24h, conc 3 (µM))	Hoechst 33342 nuclear staining (Jurkat [2]; 24h, conc 10 (µM))	Hoechst 33342 nuclear staining (Jurkat [2]; 48h, conc 0.3 (µM))	Hoechst 33342 nuclear staining (Jurkat [2]; 48h, conc 1 (µM))	Hoechst 33342 nuclear staining (Jurkat [2]; 48h, conc 3 (µM))	Hoechst 33342 nuclear staining (Jurkat [2]; 48h, conc 10 (µM))	Hoechst 33342 nuclear staining (HeLa [3]; 24h, conc 0.3 (µM))	Hoechst 33342 nuclear staining (HeLa [3]; 24h, conc 1 (µM))	Hoechst 33342 nuclear staining (HeLa [3]; 24h, conc 3 (µM))	Hoechst 33342 nuclear staining (HeLa [3]; 24h, conc 10 (µM))	Hoechst 33342 nuclear staining (HeLa [3]; 48h, conc 0.3 (µM))	Hoechst 33342 nuclear staining (HeLa [3]; 48h, conc 1 (µM))	Hoechst 33342 nuclear staining (HeLa [3]; 48h, conc 3 (µM))	Hoechst 33342 nuclear staining (HeLa [3]; 48h, conc 10 (µM))	Hoechst 33342 nuclear staining (K562; K562, 24h, conc 0.3 (µM))	Hoechst 33342 nuclear staining (K562; K562, 24h, conc 1 (µM))	Hoechst 33342 nuclear staining (K562; K562, 24h, conc 3 (µM))	further results
CC1(C)Cc2ccccc2-c2cc3nc4ccccc4nc3n21 [No. 1, 6,6-Dimethyl-5,6-dihydro-6a,7,12-triaza-dibenzo[a,h]fluorene]	0 (Score 0 relates to less than 10%)	1 (1 relating to weak activity comprising less than 50% of the cells)	1 (1 relating to weak activity comprising less than 50% of the cells)	2 (score 2 relating to strong activity comprising more than 50% of the cells)	2 (score 2 relating to strong activity comprising more than 50% of the cells)	2 (score 2 relating to strong activity comprising more than 50% of the cells)	2 (score 2 relating to strong activity comprising more than 50% of the cells)	2 (score 2 relating to strong activity comprising more than 50% of the cells)	2 (score 2 relating to strong activity comprising more than 50% of the cells)	0	0	0	0	0	2 (score 2 relating to strong activity comprising more than 50% of the cells)	2 (score 2 relating to strong activity comprising more than 50% of the cells)	2 (score 2 relating to strong activity comprising more than 50% of the cells)	0	0	0	Hoechst 33342 nuclear staining (KB; 24h, conc 0.3 (µM)): 0; Hoechst 33342 nuclear staining (KB; 24h, conc 1 (µM)): 0; Hoechst 33342 nuclear staining (KB; 24h, conc 3 (µM)): 0; Hoechst 33342 nuclear staining (KB; 24h, conc 10 (µM)): 0; Hoechst 33342 nuclear staining (KB; 48h, conc 0.3 (µM)): 0; Hoechst 33342 nuclear staining (KB; 48h, conc 1 (µM)): 0; Hoechst 33342 nuclear staining (KB; 48h, conc 3 (µM)): 0; Hoechst 33342 nuclear staining (KB; 48h, conc 10 (µM)): 0; Hoechst 33342 nuclear staining (K562; K562, 48h, conc 0.3 (µM)): 0; Hoechst 33342 nuclear staining (K562; K562, 48h, conc 1 (µM)): 1 (1 relating to weak activity comprising less than 50% of the cells); Hoechst 33342 nuclear staining (K562; K562, 48h, conc 3 (µM)): 2 (score 2 relating to strong activity comprising more than 50% of the cells); Hoechst 33342 nuclear staining (K562; K562, 48h, conc 10 (µM)): 2 (score 2 relating to strong activity comprising more than 50% of the cells); percentage of positively stained cells (AnnexinV/7-AAD staining) (Ramos [4]): 1 (score 1 relates to more than 10% but less than 50%); percentage of positively stained cells (AnnexinV/7-AAD staining) (Jurkat [5]): 0 (Score 0 relates to less than 10%); percentage of positively stained cells (AnnexinV/7-AAD staining) (HeLa [6]): 1 (score 1 relates to more than 10% but less than 50%)
CC1(C)Cc2ccccc2-c2c(C=O)c3nc4ccccc4nc3n21 [No. 3, 6,6-Dimethyl-5,6-dihydro-6a,7,12-triaza-dibenzo[a,h]fluorene-13-carbaldehyde]	1 (score 1 relates to more than 10% but less than 50%)	0	0	0	0	0	0	0	2 (score 2 relating to strong activity comprising more than 50% of the cells)	0	0	0	0	0	0	0	1 (1 relating to weak activity comprising less than 50% of the cells)	0	0	0	Hoechst 33342 nuclear staining (Ramos [7]; conc 0.3 (µM)): 0; Hoechst 33342 nuclear staining (Ramos [7]; conc 1 (µM)): 0; Hoechst 33342 nuclear staining (Ramos [7]; conc 3 (µM)): 0; Hoechst 33342 nuclear staining (Ramos [7]; conc 10 (µM)): 0; Hoechst 33342 nuclear staining (K562; K562, 24h, conc 10 (µM)): 0; Hoechst 33342 nuclear staining (K562; K562, 48h, conc 0.3 (µM)): 0; Hoechst 33342 nuclear staining (K562; K562, 48h, conc 1 (µM)): 0; Hoechst 33342 nuclear staining (K562; K562, 48h, conc 3 (µM)): 1 (1 relating to weak activity comprising less than 50% of the cells); Hoechst 33342 nuclear staining (K562; K562, 48h, conc 10 (µM)): 1 (1 relating to weak activity comprising less than 50% of the cells); Hoechst 33342 nuclear staining (A20 [8]; A20, 24h, conc 0.3 (µM)): 0; Hoechst 33342 nuclear staining (A20 [8]; A20, 24h, conc 1 (µM)): 0; Hoechst 33342 nuclear staining (A20 [8]; A20, 24h, conc 3 (µM)): 0; Hoechst 33342 nuclear staining (A20 [8]; A20, 24h, conc 10 (µM)): 0; Hoechst 33342 nuclear staining (A20 [8]; A20, 48h, conc 0.3 (µM)): 0; Hoechst 33342 nuclear staining (A20 [8]; A20, 48h, conc 1 (µM)): 0; Hoechst 33342 nuclear staining (A20 [8]; A20, 48h, conc 3 (µM)): 0; Hoechst 33342 nuclear staining (A20 [8]; A20, 48h, conc 10 (µM)): 0; percentage of positively stained cells (AnnexinV/7-AAD staining) (Ramos [4]): 2 (score 2 relates to more than 50% positivity); percentage of positively stained cells (AnnexinV/7-AAD staining) (Jurkat [5]): 2 (score 2 relates to more than 50% positivity); percentage of positively stained cells (AnnexinV/7-AAD staining) (HeLa [6]): 1 (score 1 relates to more than 10% but less than 50%)
